Assay results from ChEMBL document CHEMBL4396884, “Structure-Aided Identification and Optimization of Tetrahydro-isoquinolines as Novel PDE4 Inhibitors Leading to Discovery of an Effective Antipsoriasis Agent” (J Med Chem, 2019).
One block for each compound: values may come before it. The source made the active and inactive calls. The rule behind the calls is not given here.

Columns and labels:
[1] = biological target: 3',5'-cyclic-AMP phosphodiesterase 4D (Homo sapiens) (UniProt Q08499); assay: Inhibition of recombinant human PDE4D catalytic domain at 1 uM using [3H]cAMP as substrate measured after 30 mins by scintillation proximity assay relative to control
[2] = biological target: Phosphodiesterase 4 (Homo sapiens) (UniProt P27815+Q08499+Q07343+Q08493); assay: Inhibition of PDE4 in human PBMC assessed as reduction in LPS-stimulated TNFalpha production at 10 uM preincubated for 1 hr followed by LPS stimulation and measured after 18 to 20 hrs by ELISA relative to control; assay type: protein assay
[3] = biological target: 3',5'-cyclic-AMP phosphodiesterase 4D (Homo sapiens) (UniProt Q08499); assay: Inhibition of recombinant human PDE4D catalytic domain at 10 uM using [3H]cAMP as substrate measured after 30 mins by scintillation proximity assay relative to control
[4] = Oral bioavailability in Sprague-Dawley rat at 25 mg/kg by LC-MS/MS analysis; assay type: ADME, organism-based; details: in vivo
Mus musculus [5] = assay: Antiinflammatory activity in specific pathogen free BALB/c mouse assessed as inhibition of LPS-induced IL12p40 secretion in serum at 1 mg/kg, po administered as single dose pretreated for 1.5 hrs followed by LPS stimulation and measured after 2 hrs by ELISA; assay type: functional, organism-based
[6] = AUC (0 to infinity) in Sprague-Dawley rat at 25 mg/kg, po by LC-MS/MS analysis; assay type: ADME, organism-based; set-up: dose 25 mg/kg, route oral, time infinity; details: in vivo
[7] = AUC (0 to t) in Sprague-Dawley rat at 25 mg/kg, po by LC-MS/MS analysis; assay type: ADME, organism-based; details: in vivo
[8] = AUC (0 to infinity) in Sprague-Dawley rat at 10 mg/kg, iv by LC-MS/MS analysis; assay type: ADME, organism-based; set-up: dose 10 mg/kg, route intravenous, time infinity; details: in vivo
Mus musculus [9] = assay: Protection against imiquimod-induced skin inflammation in BALB/c mouse psoriasis model assessed as decrease in cumulative psoriasis score at 25 mg/kg, po administered once daily for 7 days; assay type: functional, organism-based
[10] = Apparent permeability across apical to basal side in human Caco2 cells measured after 95 mins by LC-MS/MS analysis; assay type: ADME, cell-based; details: Caco-2
Mus musculus [11] = assay: Antiinflammatory activity in specific pathogen free BALB/c mouse assessed as inhibition of LPS-induced IL6 secretion in serum at 1 mg/kg, po administered as single dose pretreated for 1.5 hrs followed by LPS stimulation and measured after 2 hrs by ELISA; assay type: functional, organism-based
[12] = Clearance in Sprague-Dawley rat at 10 mg/kg, iv by LC-MS/MS analysis; assay type: ADME, organism-based; details: in vivo
[13] = AUC (0 to t) in Sprague-Dawley rat at 10 mg/kg, iv by LC-MS/MS analysis; assay type: ADME, organism-based; details: in vivo
Mus musculus [14] = assay: Protection against imiquimod-induced skin inflammation in BALB/c mouse psoriasis model assessed as decrease in skin scaling at 25 mg/kg, po administered once daily for 7 days; assay type: functional, organism-based
[15] = Permeability across basal to apical side in human Caco2 cells assessed as drug recovery measured after 95 mins by LC-MS/MS analysis; assay type: ADME, cell-based; details: Caco-2, read-out: Drug recovery
Mus musculus [16] = assay: Protection against imiquimod-induced skin inflammation in BALB/c mouse psoriasis model assessed as decrease in lesion thickness at 25 mg/kg, po administered once daily for 7 days; assay type: functional, organism-based
Mus musculus [17] = assay: Protection against imiquimod-induced skin inflammation in BALB/c mouse psoriasis model assessed as decrease in lesion thickness at 62.5 mg administered topically as cream formulation once daily for 7 days; assay type: functional, organism-based
[18] = MRT in Sprague-Dawley rat at 25 mg/kg, po by LC-MS/MS analysis; assay type: ADME, organism-based; details: in vivo
Mus musculus [19] = assay: Antiinflammatory activity in specific pathogen free BALB/c mouse assessed as inhibition of LPS-induced IL12p40 secretion in spleen at 1 mg/kg, po administered as single dose pretreated for 1.5 hrs followed by LPS stimulation and measured after 2 hrs by ELISA; assay type: functional, organism-based
[20] = MRT in Sprague-Dawley rat at 10 mg/kg, iv by LC-MS/MS analysis; assay type: ADME, organism-based; details: in vivo
[21] = Cmax in Sprague-Dawley rat at 25 mg/kg, po by LC-MS/MS analysis; assay type: ADME, organism-based; set-up: dose 25 mg/kg, route oral; details: in vivo
[22] = Apparent permeability across basal to apical side in human Caco2 cells measured after 95 mins by LC-MS/MS analysis; assay type: ADME, cell-based; details: Caco-2
Mus musculus [23] = assay: Protection against imiquimod-induced skin inflammation in BALB/c mouse psoriasis model assessed as decrease in skin erythema at 25 mg/kg, po administered once daily for 7 days; assay type: functional, organism-based
Mus musculus [24] = assay: Protection against imiquimod-induced skin inflammation in BALB/c mouse psoriasis model assessed as decrease in skin erythema at 62.5 mg administered topically as cream formulation once daily for 7 days; assay type: functional, organism-based
Mus musculus [25] = assay: Antiinflammatory activity in specific pathogen free BALB/c mouse assessed as inhibition of LPS-induced TNFalpha secretion in spleen at 1 mg/kg, po administered as single dose pretreated for 1.5 hrs followed by LPS stimulation and measured after 2 hrs by ELISA; assay type: functional, organism-based
[26] = Half life in Sprague-Dawley rat at 10 mg/kg, iv by LC-MS/MS analysis; assay type: ADME, organism-based; details: in vivo
[27] = Half life in Sprague-Dawley rat at 25 mg/kg, po by LC-MS/MS analysis; assay type: ADME, organism-based; details: in vivo
[28] = Permeability across apical to basal side in human Caco2 cells assessed as drug recovery measured after 95 mins by LC-MS/MS analysis; assay type: ADME, cell-based; details: Caco-2, read-out: Drug recovery
[29] = Volume of distribution at steady state in Sprague-Dawley rat at 10 mg/kg, iv by LC-MS/MS analysis; assay type: ADME, organism-based; details: in vivo, read-out: Vdss
[30] = Tmax in Sprague-Dawley rat at 25 mg/kg, po by LC-MS/MS analysis; assay type: ADME, organism-based; details: in vivo
Mus musculus [31] = assay: Antiinflammatory activity in specific pathogen free BALB/c mouse assessed as inhibition of LPS-induced TNFalpha secretion in serum at 1 mg/kg, po administered as single dose pretreated for 1.5 hrs followed by LPS stimulation and measured after 2 hrs by ELISA; assay type: functional, organism-based
Mus musculus [32] = assay: Antiinflammatory activity in specific pathogen free BALB/c mouse assessed as inhibition of LPS-induced IL6 secretion in spleen at 1 mg/kg, po administered as single dose pretreated for 1.5 hrs followed by LPS stimulation and measured after 2 hrs by ELISA; assay type: functional, organism-based
Mus musculus [33] = assay: Protection against imiquimod-induced skin inflammation in BALB/c mouse psoriasis model assessed as decrease in skin scaling at 62.5 mg administered topically as cream formulation once daily for 7 days; assay type: functional, organism-based

Sequence of 3',5'-cyclic-AMP phosphodiesterase 4D (Homo sapiens) (Q08499 whole entry, the tested form may be a part): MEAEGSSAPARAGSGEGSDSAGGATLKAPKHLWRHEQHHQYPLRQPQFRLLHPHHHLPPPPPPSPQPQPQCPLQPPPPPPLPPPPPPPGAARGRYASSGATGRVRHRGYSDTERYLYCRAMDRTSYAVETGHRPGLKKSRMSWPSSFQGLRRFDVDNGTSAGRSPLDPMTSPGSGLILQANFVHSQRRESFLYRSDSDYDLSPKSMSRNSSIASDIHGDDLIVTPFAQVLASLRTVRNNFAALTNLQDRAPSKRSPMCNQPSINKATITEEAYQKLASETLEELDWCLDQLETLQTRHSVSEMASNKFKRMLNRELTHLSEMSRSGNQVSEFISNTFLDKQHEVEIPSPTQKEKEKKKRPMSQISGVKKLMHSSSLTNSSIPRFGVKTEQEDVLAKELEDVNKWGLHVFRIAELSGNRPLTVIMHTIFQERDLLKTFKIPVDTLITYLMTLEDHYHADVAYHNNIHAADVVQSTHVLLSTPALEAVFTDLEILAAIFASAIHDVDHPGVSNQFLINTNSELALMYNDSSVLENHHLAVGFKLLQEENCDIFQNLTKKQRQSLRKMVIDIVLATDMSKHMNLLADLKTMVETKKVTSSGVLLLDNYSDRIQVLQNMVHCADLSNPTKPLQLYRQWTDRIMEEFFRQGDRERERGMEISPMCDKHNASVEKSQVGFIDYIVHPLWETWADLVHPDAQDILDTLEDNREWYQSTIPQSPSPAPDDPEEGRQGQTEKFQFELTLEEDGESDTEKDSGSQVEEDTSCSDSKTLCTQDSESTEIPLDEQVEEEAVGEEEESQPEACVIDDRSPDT

inhibition [1]: 39.1%
SMILES: COC(=O)CN1CCc2cc(OC)c(OC)cc2C1CCc1c[nH]c2ccccc12 (racemic)

inhibition [2]: 36.7%
inhibition [3]: 34.6%
SMILES: COc1cc2c(cc1OC)C(CCc1c[nH]c3ccccc13)N(CC1CCOCC1)CC2 (racemic)

inhibition [1]: 19.5%
SMILES: COc1cc2c(cc1OC)C(CCc1c[nH]c3ccccc13)N(CC(F)(F)F)CC2 (racemic)

bioavailability [4]: 68.3%
AUC(0-inf) [6]: 8460 ng·h/mL
AUC(0-t) [7]: 8390 ng·h/mL
AUC(0-inf) [8]: 6280 ng·h/mL
Papp A→B at 95 min [10]: 18.4 ×10⁻⁶ cm/s
clearance [12]: 28.3 mL/min/kg
AUC(0-t) [13]: 6210 ng·h/mL
recovery at 95 min [15]: 96.8%
MRT [18]: 150 min
MRT [20]: 55.2 min
Cmax [21]: 2450 ng/mL
Papp B→A at 95 min [22]: 19.9 ×10⁻⁶ cm/s
half-life [26]: 36 min
half-life [27]: 56.4 min
recovery at 95 min [28]: 92.3%
Vd [29]: 1.56 L/kg
Tmax [30]: 79.8 min
SMILES: COc1cc2c(cc1OC)[C@H](CCc1c[nH]c3cc(C)ccc13)N(C=O)CC2
Activity (Mus musculus [5]): Active
Activity (Mus musculus [9]): Active
Activity (Mus musculus [11]): Active
Activity (Mus musculus [14]): Active
Activity (Mus musculus [16]): Active
Activity (Mus musculus [17]): Active
Activity (Mus musculus [19]): Active
Activity (Mus musculus [23]): Active
Activity (Mus musculus [24]): Active
Activity (Mus musculus [25]): Active
Activity (Mus musculus [31]): Active
Activity (Mus musculus [32]): Active
Activity (Mus musculus [33]): Active

inhibition [1]: 24%
SMILES: COc1cc2c(cc1OC1CCCC1)[C@H](CCc1c[nH]c3cc(C)ccc13)N(C=O)CC2

Papp A→B at 95 min [10]: 14.9 ×10⁻⁶ cm/s
recovery at 95 min [15]: 92.1%
Papp B→A at 95 min [22]: 29 ×10⁻⁶ cm/s
recovery at 95 min [28]: 96.7%
SMILES: CCOc1cc([C@@H](CS(C)(=O)=O)N2C(=O)c3cccc(NC(C)=O)c3C2=O)ccc1OC
Activity (Mus musculus [9]): Active
Activity (Mus musculus [14]): Active
Activity (Mus musculus [16]): Active
Activity (Mus musculus [23]): Active

inhibition [1]: 19.2%
inhibition [2]: 25.7%
SMILES: COCCN1CCc2cc(OC)c(OC)cc2C1CCc1c[nH]c2ccccc12 (racemic)

inhibition [1]: 30.7%
SMILES: COc1cc2c(cc1OC)C(CCc1c[nH]c3ccccc13)N(C(=O)c1ccncc1)CC2 (racemic)

inhibition [1]: 16.4%
SMILES: COc1cc2c(cc1OC)C(CCc1c[nH]c3ccccc13)N(C(=O)C1CCOCC1)CC2 (racemic)
